Tests used:
[1] = pKa of the starting alcohol, in water at 25°C
Method: (§1) An ordinary acid, which is represented by HA, in water is in an equilibrium state as shown below. HA + H2 O ⇄ H3 O^+ (+ A)^- [formula] Equilibrium constant Keq is calculated as follows. Keq =([H3 O^+ (] [A)^- ])/([HA] [H2 O]) [formula] wherein [ ] represents the concentration of each chemical species.
(§2) In ordinary diluted solutions, the concentration of water [H2O] hardly changes and is constantly 55.5M, and the equilibrium constant Keq can be converted into another equation, to show the following acidity constant Ka. Ka =(([A)^- ] [H3 O^+ ])/([HA]) [formula]

Method for physchem: as §1, §2

| Structure (SMILES) | pKa [1] | pKa (physchem; water) | other results |
| --- | --- | --- | --- |
| OC(C(F)(F)F)C(F)(F)F | 5 |  |  |
| OCCCCCO [1,5-pentanediol, reference compound] |  | 17 |  |
| OCC(F)(F)C(F)(F)C(F)(F)C(F)(F)CO [1H,1H,6H,6H-perfluoro-1,6-hexanediol] | 11 |  |  |
| OCC(F)(F)F [2,2,2-trifluoroethanol] |  | 11 |  |
| OCC(F)(F)C(F)(F)C(F)(F)CO [2,2,3,3,4,4-hexafluoro-1,5-pentanediol] |  |  | pKa (physchem): 11 |

From patent EP0837085A1, “POLYCARBONATE-BASE POLYMER, PRODUCTION PROCESS, RESIN COATING FLUID PREPARED THEREFROM, AND ELECTROPHOTOGRAPHIC PHOTORECEPTOR PREPARED THEREFROM” (IDEMITSU KOSAN COMPANY LIMITED, priority 1994, dated 1996)
